Measured values as given in US20150045312A1, “Use of Compounds Elevating Glutathione Levels for the Treatment of Autism, Autistic Spectrum Disorders and Fragile X Syndrome” (Promentis Pharmaceuticals, Inc., priority 2013, published 2015).

How the values were obtained:
[1] = in vivo; cited from earlier work
[2] = schizophrenia, bipolar disorder, obsessive-compulsive disorder, autism; cited from earlier work
[3] = autistic patients, added to risperidone treatment; cited from earlier work
[4] = cited from earlier work
system xc− = molecular target: T1, system xc− (Homo sapiens, UniProt Q9UPY5); assay: in vitro screening assay in human glial cells from brain astrocytoma (1321N1); type: cell-based; settings: 1321N1 cells, high system xc− expression
T1 construct: a cell line with high system xc− expression; endogenous in cells; host or cells: 1321N1 human astrocytoma cells
T1 sequence (Q9UPY5 1-501): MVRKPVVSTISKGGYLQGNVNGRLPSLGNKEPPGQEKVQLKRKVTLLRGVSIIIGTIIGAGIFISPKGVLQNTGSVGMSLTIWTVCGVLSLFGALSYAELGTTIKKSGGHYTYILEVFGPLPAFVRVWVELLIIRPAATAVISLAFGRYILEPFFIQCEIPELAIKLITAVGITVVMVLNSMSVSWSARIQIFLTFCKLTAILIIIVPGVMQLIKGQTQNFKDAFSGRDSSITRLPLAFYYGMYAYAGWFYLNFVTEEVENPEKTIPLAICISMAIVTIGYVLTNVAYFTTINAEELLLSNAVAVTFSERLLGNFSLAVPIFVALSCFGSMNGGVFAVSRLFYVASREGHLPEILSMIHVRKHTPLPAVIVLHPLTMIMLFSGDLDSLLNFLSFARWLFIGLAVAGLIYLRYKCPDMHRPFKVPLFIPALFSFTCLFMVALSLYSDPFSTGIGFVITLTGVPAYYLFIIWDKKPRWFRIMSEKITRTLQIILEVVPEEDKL
T1 sequence (P08195 1-529 partner): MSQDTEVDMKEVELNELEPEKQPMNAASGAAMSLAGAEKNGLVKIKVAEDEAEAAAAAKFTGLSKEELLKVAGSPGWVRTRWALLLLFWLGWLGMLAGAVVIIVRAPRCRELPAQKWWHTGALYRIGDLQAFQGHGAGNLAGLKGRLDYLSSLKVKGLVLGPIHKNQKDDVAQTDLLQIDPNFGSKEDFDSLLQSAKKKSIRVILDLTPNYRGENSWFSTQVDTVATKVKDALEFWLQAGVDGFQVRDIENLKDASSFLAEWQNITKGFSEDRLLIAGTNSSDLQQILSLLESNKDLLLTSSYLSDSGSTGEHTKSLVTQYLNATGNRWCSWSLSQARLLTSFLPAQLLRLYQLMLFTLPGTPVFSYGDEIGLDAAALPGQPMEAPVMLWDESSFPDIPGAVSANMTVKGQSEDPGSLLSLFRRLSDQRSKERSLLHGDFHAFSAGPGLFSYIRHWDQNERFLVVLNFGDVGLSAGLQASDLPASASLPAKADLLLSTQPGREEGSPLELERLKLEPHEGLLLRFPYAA
Excerpt: Using an in vitro screening assay conducted in human glial cells from brain astrocytoma (1321N1), a cell line with high system xc− expression, the compound with the following formula: […]
Using an in vitro screening assay conducted in human glial cells from brain astrocytoma (1321N1), a cell line with high System xc− expression, the compound with the following formula: […]

[5] = elevated plus maze (EPM) efficacy model of neuropsychiatric disease activity; type: in vivo; settings: orally-active
[6] = pre-pulse inhibition (PPI) efficacy model of neuropsychiatric disease activity; type: in vivo

CC(=O)N[C@@H](CS)C(=O)O [NAC, N-acetyl cysteine]
entry into the CNS [1]: do not readily enter the CNS
symptoms of mental disorders [2]: modestly improve symptoms
irritability versus risperidone+placebo [3]: significantly decrease irritability
solubility characteristics [4]: poor solubility characteristics

O=C(Cc1ccccc1)N[C@@H](CSC(c1ccccc1)(c1ccccc1)c1ccccc1)C(=O)O [drawing 15]
3H-glutamate (system xc−): significant elevations
uptake of 14C-cystine (system xc−): robust and significant decrease

O=C(Cc1ccccc1)N[C@@H](CSC(c1ccccc1)(c1ccccc1)c1ccccc1)C(=O)O [drawing 16]
behavioral effects in EPM model [5]: significant behavioral effects
response in PPI model compared with clozapine ([6]; at a comparable dose range, similar to clozapine): antipsychotic-like response
behavioral effects in PPI model ([6]; orally-active): significant behavioral effects

N[C@@H](CCC(=O)N[C@@H](CS)C(=O)NCC(=O)O)C(=O)O [glutathione]
entry into the CNS [1]: do not readily enter the CNS
solubility characteristics [4]: poor solubility characteristics
